Assays:
B-Raf = B-Raf (Homo sapiens, UniProt P15056); experiment: Kinase activity assay, B-Raf; assay type: biochemical; details: read-out: activity toward kinase B-Raf, IC50
B-Raf V600E = B-Raf V600E (Homo sapiens, UniProt P15056, V600E); experiment: Kinase activity assay, B-Raf V600E; assay type: biochemical; details: read-out: activity toward kinase B-Raf V600E, IC50
Kdr = Kdr (Homo sapiens, UniProt P35968); experiment: Kinase activity assay, Kdr
Kit = Kit (Homo sapiens, UniProt P10721); experiment: Kinase activity assay, Kit
Src = Src (Homo sapiens, UniProt P12931); experiment: Kinase activity assay, Src
C-Raf = C-Raf (Homo sapiens, UniProt P04049); experiment: Kinase activity assay, C-Raf
Fms = Fms (Homo sapiens, UniProt P07333); experiment: Kinase activity assay, Fms

Measured: IC50

Sequence of Src (P12931 whole entry): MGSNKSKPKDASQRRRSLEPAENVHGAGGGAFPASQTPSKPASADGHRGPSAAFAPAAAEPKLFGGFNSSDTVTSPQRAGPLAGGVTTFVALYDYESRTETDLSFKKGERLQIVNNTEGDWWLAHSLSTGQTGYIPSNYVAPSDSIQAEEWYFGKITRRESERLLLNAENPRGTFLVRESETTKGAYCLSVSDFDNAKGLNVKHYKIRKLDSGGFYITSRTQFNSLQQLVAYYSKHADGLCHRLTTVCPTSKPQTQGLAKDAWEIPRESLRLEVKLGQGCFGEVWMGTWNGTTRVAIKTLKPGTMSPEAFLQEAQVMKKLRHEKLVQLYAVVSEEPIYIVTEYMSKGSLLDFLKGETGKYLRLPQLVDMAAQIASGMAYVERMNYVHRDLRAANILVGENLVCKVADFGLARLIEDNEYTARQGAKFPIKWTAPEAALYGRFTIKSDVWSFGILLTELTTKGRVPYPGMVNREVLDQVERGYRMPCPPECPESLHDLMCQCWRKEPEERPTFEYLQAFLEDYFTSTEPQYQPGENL
Sequence of B-Raf V600E (P15056 whole entry V600E): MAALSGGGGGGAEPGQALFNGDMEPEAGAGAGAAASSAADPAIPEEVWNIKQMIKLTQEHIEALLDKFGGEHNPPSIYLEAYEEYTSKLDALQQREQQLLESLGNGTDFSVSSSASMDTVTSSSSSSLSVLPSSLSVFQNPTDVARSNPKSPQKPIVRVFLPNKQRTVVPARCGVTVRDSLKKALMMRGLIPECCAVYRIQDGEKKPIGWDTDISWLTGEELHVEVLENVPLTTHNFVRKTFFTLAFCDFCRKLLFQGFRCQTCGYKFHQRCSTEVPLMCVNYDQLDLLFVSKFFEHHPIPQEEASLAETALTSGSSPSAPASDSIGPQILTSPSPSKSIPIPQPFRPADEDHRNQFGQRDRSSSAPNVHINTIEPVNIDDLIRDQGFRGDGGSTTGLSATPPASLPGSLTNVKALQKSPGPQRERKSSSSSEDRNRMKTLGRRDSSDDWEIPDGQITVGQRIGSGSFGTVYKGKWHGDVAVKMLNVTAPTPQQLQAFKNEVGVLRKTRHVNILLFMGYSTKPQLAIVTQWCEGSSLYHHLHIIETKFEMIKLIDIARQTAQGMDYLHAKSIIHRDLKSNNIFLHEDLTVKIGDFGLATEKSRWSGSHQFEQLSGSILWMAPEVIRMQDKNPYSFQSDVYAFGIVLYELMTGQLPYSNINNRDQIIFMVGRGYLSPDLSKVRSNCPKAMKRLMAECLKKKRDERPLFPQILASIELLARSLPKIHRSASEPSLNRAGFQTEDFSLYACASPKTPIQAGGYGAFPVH
Sequence of B-Raf (P15056 whole entry): as the sequence (P15056 whole entry V600E) above, with E600V counted along it
Sequence of Kdr (P35968 20-1356): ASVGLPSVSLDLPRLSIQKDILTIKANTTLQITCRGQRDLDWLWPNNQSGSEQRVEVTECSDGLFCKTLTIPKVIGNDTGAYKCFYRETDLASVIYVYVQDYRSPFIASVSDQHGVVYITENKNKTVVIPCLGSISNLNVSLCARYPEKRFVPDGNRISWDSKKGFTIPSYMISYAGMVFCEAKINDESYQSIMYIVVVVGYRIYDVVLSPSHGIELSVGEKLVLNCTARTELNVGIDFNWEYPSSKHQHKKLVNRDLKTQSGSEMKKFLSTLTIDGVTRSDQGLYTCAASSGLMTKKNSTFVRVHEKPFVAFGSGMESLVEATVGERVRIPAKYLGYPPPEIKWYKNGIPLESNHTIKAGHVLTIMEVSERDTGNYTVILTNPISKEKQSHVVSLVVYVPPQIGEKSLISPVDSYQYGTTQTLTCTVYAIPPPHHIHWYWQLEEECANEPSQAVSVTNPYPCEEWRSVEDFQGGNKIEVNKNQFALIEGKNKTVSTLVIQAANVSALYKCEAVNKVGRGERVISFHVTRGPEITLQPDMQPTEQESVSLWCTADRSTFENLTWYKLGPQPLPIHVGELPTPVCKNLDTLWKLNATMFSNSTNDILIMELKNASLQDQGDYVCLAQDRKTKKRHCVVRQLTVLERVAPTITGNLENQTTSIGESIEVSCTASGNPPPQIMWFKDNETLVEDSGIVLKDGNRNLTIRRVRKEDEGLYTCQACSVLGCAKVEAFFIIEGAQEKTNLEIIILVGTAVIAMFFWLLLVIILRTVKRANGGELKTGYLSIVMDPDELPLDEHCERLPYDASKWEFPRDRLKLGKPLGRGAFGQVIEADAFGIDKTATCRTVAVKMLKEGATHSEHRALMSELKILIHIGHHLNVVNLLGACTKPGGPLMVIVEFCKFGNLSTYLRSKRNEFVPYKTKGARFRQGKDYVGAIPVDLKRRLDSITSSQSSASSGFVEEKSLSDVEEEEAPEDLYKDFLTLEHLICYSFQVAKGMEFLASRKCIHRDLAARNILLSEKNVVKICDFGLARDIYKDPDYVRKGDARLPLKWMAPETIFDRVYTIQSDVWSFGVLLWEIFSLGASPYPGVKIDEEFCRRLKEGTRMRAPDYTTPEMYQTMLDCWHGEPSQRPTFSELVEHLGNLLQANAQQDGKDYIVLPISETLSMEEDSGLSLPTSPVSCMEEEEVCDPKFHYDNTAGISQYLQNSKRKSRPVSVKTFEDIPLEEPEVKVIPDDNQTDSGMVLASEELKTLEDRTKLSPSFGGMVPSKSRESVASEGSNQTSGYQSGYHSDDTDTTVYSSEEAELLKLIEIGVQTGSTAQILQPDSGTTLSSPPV
Sequence of Kit (P10721 26-976): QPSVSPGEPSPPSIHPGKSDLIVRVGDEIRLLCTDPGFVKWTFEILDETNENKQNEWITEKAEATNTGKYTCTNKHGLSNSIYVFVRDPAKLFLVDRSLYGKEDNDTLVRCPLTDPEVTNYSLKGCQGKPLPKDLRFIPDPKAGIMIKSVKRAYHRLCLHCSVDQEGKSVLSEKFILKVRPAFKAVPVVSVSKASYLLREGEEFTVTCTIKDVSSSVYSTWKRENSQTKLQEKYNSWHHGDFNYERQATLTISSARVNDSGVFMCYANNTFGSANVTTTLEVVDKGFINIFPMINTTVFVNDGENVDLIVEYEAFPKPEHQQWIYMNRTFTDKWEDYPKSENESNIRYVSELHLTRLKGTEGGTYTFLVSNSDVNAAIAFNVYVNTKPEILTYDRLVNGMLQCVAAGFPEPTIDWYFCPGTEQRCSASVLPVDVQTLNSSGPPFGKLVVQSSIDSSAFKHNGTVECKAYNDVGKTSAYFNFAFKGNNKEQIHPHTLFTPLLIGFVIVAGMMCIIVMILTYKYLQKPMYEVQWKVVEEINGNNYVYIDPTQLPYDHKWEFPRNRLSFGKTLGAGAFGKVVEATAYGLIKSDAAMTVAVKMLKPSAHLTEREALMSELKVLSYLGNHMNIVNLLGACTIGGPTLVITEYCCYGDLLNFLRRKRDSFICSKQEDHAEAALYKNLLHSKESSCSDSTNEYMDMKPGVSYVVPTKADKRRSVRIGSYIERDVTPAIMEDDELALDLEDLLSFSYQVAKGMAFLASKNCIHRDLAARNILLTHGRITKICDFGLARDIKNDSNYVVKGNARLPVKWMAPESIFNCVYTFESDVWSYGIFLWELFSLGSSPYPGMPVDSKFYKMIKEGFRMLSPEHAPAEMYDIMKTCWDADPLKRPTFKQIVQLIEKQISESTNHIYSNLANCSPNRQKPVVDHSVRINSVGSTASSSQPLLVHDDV
Sequence of C-Raf (P04049 whole entry): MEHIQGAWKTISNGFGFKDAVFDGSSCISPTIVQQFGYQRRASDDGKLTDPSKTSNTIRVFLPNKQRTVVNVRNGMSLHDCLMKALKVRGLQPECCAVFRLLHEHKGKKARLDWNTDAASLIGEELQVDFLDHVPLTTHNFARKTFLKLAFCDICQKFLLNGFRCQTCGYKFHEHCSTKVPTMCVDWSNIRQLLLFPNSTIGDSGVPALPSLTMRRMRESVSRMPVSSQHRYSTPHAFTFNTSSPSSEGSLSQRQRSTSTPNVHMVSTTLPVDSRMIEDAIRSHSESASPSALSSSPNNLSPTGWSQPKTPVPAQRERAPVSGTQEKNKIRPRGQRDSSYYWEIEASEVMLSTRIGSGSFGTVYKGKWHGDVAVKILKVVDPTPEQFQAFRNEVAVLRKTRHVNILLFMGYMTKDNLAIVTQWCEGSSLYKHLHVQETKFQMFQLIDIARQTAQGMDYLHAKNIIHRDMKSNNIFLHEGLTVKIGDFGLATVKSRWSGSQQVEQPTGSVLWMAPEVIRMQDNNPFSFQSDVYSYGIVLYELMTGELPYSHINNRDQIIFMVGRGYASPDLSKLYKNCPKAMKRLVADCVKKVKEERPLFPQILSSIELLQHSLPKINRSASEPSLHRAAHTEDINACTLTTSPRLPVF

COc1ccnc2[nH]cc(C(=O)c3c(F)ccc(NS(=O)(=O)c4ccc(F)cc4F)c3F)c12 [P-2032, N-[2,4-Difluoro-3-(4-methoxy-1H-pyrrolo[2,3-b]pyridine-3-carbonyl)-phenyl]-2,4-difluoro-benzenesulfonamide]
not listed: Fms
≤ 10 µM: all other assays above

N#Cc1cnc2[nH]cc(C(=O)c3cccc(NS(=O)(=O)c4ccc(F)cc4F)c3F)c2c1 [P-2055, N-[3-(5-Cyano-1H-pyrrolo[2,3-b]pyridine-3-carbonyl)-2-fluoro-phenyl]-2,4-difluoro-benzenesulfonamide]
not listed: Fms
≤ 10 µM: all other assays above

Cc1cnc2[nH]cc(C(=O)c3cccc(NS(=O)(=O)c4ccc(C(F)(F)F)cc4)c3F)c2c1 [P-2059, N-[2-Fluoro-3-(5-methyl-1H-pyrrolo[2,3-b]pyridine-3-carbonyl)-phenyl]-4-trifluoromethyl-benzenesulfonamide]
not listed: Kit | Fms
≤ 10 µM: all other assays above

O=C(c1cc(NS(=O)(=O)c2ccc(F)cc2)ccc1F)c1c[nH]c2ncc(Cl)cc12 [P-2107, N-[3-(5-Chloro-1H-pyrrolo[2,3-b]pyridine-3-carbonyl)-4-fluoro-phenyl]-4-fluoro-benzenesulfonamide]
≤ 10 µM: Fms | Kdr | Kit

O=C(c1cccc(NS(=O)(=O)c2ccc(F)cc2)c1)c1c[nH]c2ncc(Cl)cc12 [P-2121, N-[3-(5-Chloro-1H-pyrrolo[2,3-b]pyridine-3-carbonyl)-phenyl]-4-fluoro-benzenesulfonamide]
≤ 10 µM: Fms | Kdr | Kit

O=C(c1cccc(NS(=O)(=O)c2cccc(C(F)(F)F)c2)c1)c1c[nH]c2ncc(Cl)cc12 [P-2122, N-[3-(5-Chloro-1H-pyrrolo[2,3-b]pyridine-3-carbonyl)-phenyl]-3-trifluoromethyl-benzenesulfonamide]
≤ 10 µM: Fms | Kdr | Kit

O=C(c1cccc(NS(=O)(=O)c2cccc(OC(F)(F)F)c2)c1)c1c[nH]c2ncc(Cl)cc12 [P-2124, N-[3-(5-Chloro-1H-pyrrolo[2,3-b]pyridine-3-carbonyl)-phenyl]-3-trifluoromethoxy-benzenesulfonamide]
≤ 10 µM: Fms | Kdr | Kit

O=C(c1cccc(NS(=O)(=O)c2cccc(Cl)c2)c1)c1c[nH]c2ncc(Cl)cc12 [P-2125, 3-Chloro-N-[3-(5-chloro-1H-pyrrolo[2,3-b]pyridine-3-carbonyl)-phenyl]-benzenesulfonamide]
≤ 10 µM: Fms | Kdr | Kit

CCCS(=O)(=O)Nc1ccc(F)c(C(=O)c2c[nH]c3ncc(-c4ccc(Cl)nc4)cc23)c1F [P-2154, Propane-1-sulfonic acid {3-[5-(6-chloro-pyridin-3-yl)-1H-pyrrolo[2,3-b]pyridine-3-carbonyl]-2,4-difluoro-phenyl}-amide]
not listed: Kit | Fms
≤ 10 µM: all other assays above

CCCS(=O)(=O)Nc1ccc(F)c(C(=O)c2c[nH]c3ncc(-c4cc(C)nn4C)cc23)c1F [P-2195, Propane-1-sulfonic acid {3-[5-(2,5-dimethyl-2H-pyrazol-3-yl)-1H-pyrrolo[2,3-b]pyridine-3-carbonyl]-2,4-difluoro-phenyl}-amide]
not listed: C-Raf | Fms
≤ 10 µM: all other assays above

CCCS(=O)(=O)Nc1ccc(F)c(C(=O)c2c[nH]c3ncc(/C=C/C(=O)OC)cc23)c1F [P-2225, (E)-3-{3-[2,6-Difluoro-3-(propane-1-sulfonylamino)-benzoyl]-1H-pyrrolo[2,3-b]pyridin-5-yl}-acrylic acid methyl ester]
not listed: Kit | Fms
≤ 10 µM: all other assays above

CCCS(=O)(=O)Nc1ccc(F)c(C(=O)c2c[nH]c3ncc(C#CCN(CC)CC)cc23)c1F [P-2241, Propane-1-sulfonic acid {3-[5-(3-diethylamino-prop-1-ynyl)-1H-pyrrolo[2,3-b]pyridine-3-carbonyl]-2,4-difluoro-phenyl}-amide]
≤ 10 µM: Fms | Kdr | Kit

COc1ccnc2[nH]cc(C(=O)c3c(F)ccc(NS(=O)(=O)C(C)C)c3F)c12 [P-2280, Propane-2-sulfonic acid [2,4-difluoro-3-(4-methoxy-1H-pyrrolo[2,3-b]pyridine-3-carbonyl)-phenyl]-amide]
not listed: Kit | Fms
≤ 10 µM: all other assays above

CCCC(C)S(=O)(=O)Nc1ccc(F)c(C(=O)c2c[nH]c3ncc(Cl)cc23)c1F (stereo not drawn) [P-2311, Pentane-2-sulfonic acid [3-(5-chloro-1H-pyrrolo[2,3-b]pyridine-3-carbonyl)-2,4-difluoro-phenyl]-amide]
not listed: B-Raf | Fms
≤ 10 µM: all other assays above

O=C(c1c(F)ccc(NS(=O)(=O)CCC(F)(F)F)c1F)c1c[nH]c2ncc(-c3ccc(Cl)cc3)cc12 [P-2325, 3,3,3-Trifluoro-propane-1-sulfonic acid {3-[5-(4-chloro-phenyl)-1H-pyrrolo[2,3-b]pyridine-3-carbonyl]-2,4-difluoro-phenyl}-amide]
≤ 10 µM: Kit | Src

O=C(c1c(F)ccc(NS(=O)(=O)C2CC2)c1F)c1c[nH]c2ncc(Br)cc12 [P-2348, Cyclopropanesulfonic acid [3-(5-bromo-1H-pyrrolo[2,3-b]pyridine-3-carbonyl)-2,4-difluoro-phenyl]-amide]
≤ 10 µM: B-Raf V600E | Fms | Kdr | Kit

CN(C)S(=O)(=O)Nc1cccc(C(=O)c2c[nH]c3ncc(-c4ccc(Cl)cc4)cc23)c1F [P-2423, N,N-dimethylamino-sulfonic acid {3-[5-(4-chloro-phenyl)-1H-pyrrolo[2,3-b]pyridine-3-carbonyl]-2-fluoro-phenyl}-amide]
≤ 10 µM: B-Raf V600E | Fms | Kdr

O=C(c1cccc(NS(=O)(=O)N2CCCC2)c1F)c1c[nH]c2ncc(-c3ccc(Cl)cc3)cc12 [P-2425, Pyrrolidine-1-sulfonic acid {3-[5-(4-chloro-phenyl)-1H-pyrrolo[2,3-b]pyridine-3-carbonyl]-2-fluoro-phenyl}-amide]
not listed: Kit | Src
≤ 10 µM: all other assays above

CCCCS(=O)(=O)Nc1ccc(F)c(C(=O)c2c[nH]c3ncc(Cl)cc23)c1 [P-2435, Butane-1-sulfonic acid [3-(5-chloro-1H-pyrrolo[2,3-b]pyridine-3-carbonyl)-4-fluoro-phenyl]-amide]
≤ 10 µM: B-Raf V600E | Fms | Kdr | Kit

O=C(c1cc(NS(=O)(=O)C2CC2)ccc1F)c1c[nH]c2ncc(Cl)cc12 [P-2436, Cyclopropanesulfonic acid [3-(5-chloro-1H-pyrrolo[2,3-b]pyridine-3-carbonyl)-4-fluoro-phenyl]-amide]
≤ 10 µM: B-Raf V600E | Fms | Kdr | Kit

CCCCS(=O)(=O)Nc1ccc(F)c(C(=O)c2c[nH]c3ncccc23)c1 [P-2438, Butane-1-sulfonic acid [4-fluoro-3-(1H-pyrrolo[2,3-b]pyridine-3-carbonyl)-phenyl]-amide]
≤ 10 µM: Fms | Kdr | Kit

O=C(c1cc(NS(=O)(=O)C2CC2)ccc1F)c1c[nH]c2ncccc12 [P-2439, Cyclopropanesulfonic acid [4-fluoro-3-(1H-pyrrolo[2,3-b]pyridine-3-carbonyl)-phenyl]-amide]
≤ 10 µM: Fms | Kdr

O=C(c1cccc(NS(=O)(=O)C2CC2)c1)c1c[nH]c2ncc(Cl)cc12 [P-2451, Cyclopropanesulfonic acid [3-(5-chloro-1H-pyrrolo[2,3-b]pyridine-3-carbonyl)-phenyl]-amide]
≤ 10 µM: Fms | Kdr | Kit
